Columns and labels:
Assay type in all cases: biochemical
β-secretase(BACE) [1] = molecular target: T1, β-secretase(BACE) (Homo sapiens, UniProt P56817); test: BACE Assay-2 (FS1 substrate, IC50 and Ki); settings: procedure of Example 159, FS1 substrate; for Ki: read-out: Ki μM (159)
T1 construct: purchased Panvera

β-secretase(BACE) [2] = molecular target: T1, β-secretase(BACE); test: BACE FS1% Inhibition Assay; settings: FS1 substrate; for inhibition at 0.3 µM: 0.3 μM test compound, read-out: % Inhibition (FS) 0.3 μM; for inhibition at 1 µM: 1 μM test compound, read-out: % Inhibition (FS) 1 μM; for inhibition at 3 µM: 3 μM test compound, read-out: % Inhibition (FS) 3 μM
Procedure, shortened: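 Percent inhibition at each tested concentration, referenced to enzyme-free blank and vehicle-only positive control. Reaction: compound and BACE (4 μg/mL working stock) mixed 20 min at room temperature before FS1 substrate (300 μg/mL working stock), then 1 h at room temperature.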

β-secretase(BACE) [3] = molecular target: T1, β-secretase(BACE); test: BACE Assay-1 (MCA-substrate, IC50); settings: procedure of Example 158; read-out: IC50 μM (158)
Procedure: The following standards are reagents were used in this assay: Sodium Citrate trisodium salt dihydrate (Sigma), Citric Acid monohydrate (Merck), PEG8000 (Sigma), MCA-substrate (Bachem), β-secretase (BACE) (Panvera), 96-well plate zwart (Costar (Elscolab)), StatVal (Bachem).
The following standard assay buffer solution was prepared and used in this assay: 0.05 M, pH 5.0 mixture of sodium citrate trisodium salt dihydrate (9.56 g), citric acid monohydrate (3.68 g) and PEG8000 (0.50 g).
The MCA-substrate stock solution was prepared by mixing 10 mg MCA-substrate with 5 mL DMSO for a final solution concentration of 2.0 mg/mL. The substrate work solution was prepared by mixing 0.1 mL substrate in 1.90 mL assay buffer for a final concentration of 0.05 mM. The β-secretase (BACE) work solution was prepared by mixing 8 μL BACE in 2 mL assay buffer for a final concentration of 10 μg/mL.
The screen procedure for this assay was as follows. 60 μL of assay buffer was pippeted into each well of a 96-well plate. To each well was then pipetted 1 μL of test compound at the selected concentration. To each well was then added 20 μL of the β-secretase work solution and 20 μL of the MCA-substrate stock solution.
The procedure for the blank was as follows. 80 μL of assay buffer was pipetted into each well to be used as a blank control. To each well was then added 1 μL of DMSO and 20 μL of MCA-substrate solution in each well.
The procedure for the positive control was as follows. 60 μL of assay buffer was pipetted into each well to be used as a positive control. To each well was then added 1 μL of DMSO, 20 μL of BACE work solution and 20 μL of MCA-substrate stock solution.
For test compounds, measured at multiple concentrations, the measured T0 and T60 values were used to calculate an IC50 value using Graphpad Software (or PIR).

T1 sequence (P56817 46-501): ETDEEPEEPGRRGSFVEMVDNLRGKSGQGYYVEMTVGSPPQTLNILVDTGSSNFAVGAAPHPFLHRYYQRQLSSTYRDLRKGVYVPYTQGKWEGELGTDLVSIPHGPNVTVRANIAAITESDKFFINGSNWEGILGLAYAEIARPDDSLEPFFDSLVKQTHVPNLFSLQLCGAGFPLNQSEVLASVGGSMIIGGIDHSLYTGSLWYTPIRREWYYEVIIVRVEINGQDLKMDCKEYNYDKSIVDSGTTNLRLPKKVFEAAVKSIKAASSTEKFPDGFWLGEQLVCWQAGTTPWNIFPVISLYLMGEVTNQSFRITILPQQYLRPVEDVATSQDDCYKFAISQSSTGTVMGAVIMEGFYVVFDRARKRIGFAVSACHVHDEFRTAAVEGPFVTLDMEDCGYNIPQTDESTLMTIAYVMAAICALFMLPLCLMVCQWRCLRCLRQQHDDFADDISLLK

Row | IC50 (β-secretase(BACE) [3]) [µM] | Compound | other results
1 | 0.05 | CCCC(CCC)C(=O)NCC(C1CCCCC1)N1Cc2cc(Oc3ccccc3)ccc2N=C1N (stereo not shown) [Compound 302] | Ki (β-secretase(BACE) [1]): 0.14 µM; inhibition at 0.3 µM (β-secretase(BACE) [2]): < 30%; inhibition at 1 µM (β-secretase(BACE) [2]): 72%; inhibition at 3 µM (β-secretase(BACE) [2]): 108%
2 | 0.22 | COc1ccc(C(CCC(=O)N(C)C2CCCCC2)N2Cc3cc(Oc4ccccc4)ccc3N=C2N)cc1 (stereo not shown) [Compound 298] | Ki (β-secretase(BACE) [1]): 0.23 µM; inhibition at 0.3 µM (β-secretase(BACE) [2]): < 30%; inhibition at 1 µM (β-secretase(BACE) [2]): 75%; inhibition at 3 µM (β-secretase(BACE) [2]): 110%
3 | 0.16 | CCCC(CCC(=O)N(CC)C1CCCCC1)N1Cc2cc(Oc3ccccc3)ccc2N=C1N (stereo not shown) [Compound 127] | Ki (β-secretase(BACE) [1]): 0.18 µM; inhibition at 3 µM (β-secretase(BACE) [2]): 79%; inhibition at 10 µM (β-secretase(BACE) [2]; 10 μM test compound, read-out: % Inhibition (FS) 10 μM): 102%
4 | 0.054 | Cc1ccc(C(CCC(=O)N(C)C2CCCCC2)N2Cc3cc(Oc4ccccc4)ccc3N=C2N)cc1 (stereo not shown) [Compound 421] | inhibition at 0.3 µM (β-secretase(BACE) [2]): < 30%; inhibition at 1 µM (β-secretase(BACE) [2]): 71%; inhibition at 3 µM (β-secretase(BACE) [2]): 111%
5 | > 10 | CCCN1Cc2cc(Oc3cccc(NS(=O)(=O)c4ccc(-c5cc(C(F)(F)F)on5)s4)c3)ccc2N=C1N [Compound 255] | 
6 | > 10 | CCCN1Cc2cc(Oc3cccc(NS(=O)(=O)c4cccc5c(N(C)C)cccc45)c3)ccc2N=C1N [Compound 253] | 
7 | 3.98 | CCCN1Cc2cc(-c3cccc(NS(=O)(=O)c4ccccc4)c3)ccc2N=C1N [Compound 397] | 
8 | 2.5 | CN(C(=O)CCN1Cc2cc(C(=O)c3ccccc3)ccc2N=C1N)C1CCCCCC1 [Compound 4] | 
9 | 0.28 | CCCN1Cc2cc(-c3ccccc3CCNS(=O)(=O)c3ccccc3)ccc2N=C1N [Compound 385, N-{2-[2-(2-Amino-3-propyl-3,4-dihydro-quinazolin-6-yl)-phenyl]-ethyl}-benzenesulfonamide] | 
10 | 26 | CN(C(=O)CCN1Cc2cc(C(=O)c3ccc(F)cc3)ccc2N=C1N)C1CCCCC1 [Compound 2] | 
11 | 3.1 | NC1=Nc2ccc(C(=O)c3ccccc3)cc2CN1CCCOc1ccccc1 [Compound 8] | IC50 (β-secretase(BACE) [1]): 15 µM; Ki (β-secretase(BACE) [1]): 1.2 µM
12 | 0.71 | NC1=Nc2ccc(Oc3cccc(NS(=O)(=O)c4ccccc4)c3)cc2CN1CCCCCO [Compound 380] | 
13 | 0.081 | CCCN1Cc2cc(Oc3cccc(NCc4ccccc4)c3)ccc2N=C1N [Compound 507] | 
14 | 1.8 | CN(C(=O)CCN1Cc2cc(C(=O)c3ccccc3)ccc2N=C1N)C1CCCC1 [Compound 24] | 
15 | 0.17 | CCCN1Cc2cc(Oc3cccc(NS(=O)(=O)c4ccc(C)cc4OC)c3)ccc2N=C1N [Compound 273] | 
16 | 3.3 | CCCN1Cc2cc([S+]([O-])c3cccc(NS(=O)(=O)c4ccccc4)c3)ccc2N=C1N (stereo not shown) [Compound 387, N-[3-(2-Amino-3-propyl-3,4-dihydro-quinazoline-6-sulfinyl)-phenyl]-benzenesulfonamide] | 
17 | > 10 | CCCN1Cc2cc(Oc3cccc(NS(=O)(=O)c4cccc(Br)c4)c3)ccc2N=C1N [Compound 282] | 
18 | > 10 | CCCN1Cc2cc(Oc3cccc(NS(=O)(=O)c4ccc(-c5ccno5)s4)c3)ccc2N=C1N [Compound 278] | 
19 | 5.1 | CN(C(=O)CCN1Cc2cc(C(=O)c3ccc(F)cc3)ccc2N=C1N)C1CCCCCC1 [Compound 5] | 
20 | 2.6 | CN(C1CCCCC1)S(=O)(=O)CCN1Cc2cc(Oc3cccc(NC(=O)OCc4ccccc4)c3)ccc2N=C1N [Compound 71] | 
21 | 9.1 | CCN(C(=O)CCN1Cc2cc(C(=O)c3ccc(F)cc3)ccc2N=C1N)C1CCCCC1 [Compound 6] | 
22 | 12 | CN(C(=O)CCN1Cc2cc(-c3noc4cc(F)ccc34)ccc2N=C1N)C1CCCCC1 [Compound 37] | 
23 | 16 | CN(C(=O)CCN1Cc2cc(C(=O)c3ccccc3)ccc2N=C1N)c1ccccc1 [Compound 13] | 
24 | 14 | CN(C(=O)CCN1Cc2cc(C(O)c3ccccc3)ccc2N=C1N)C1CCCCC1 (stereo not shown) [Compound 32, 3-[2-Amino-6-(hydroxy-phenyl-methyl)-4H-quinazolin-3-yl]-N-cyclohexyl-N-methyl-propionamide] | 

Row | IC50 (β-secretase(BACE) [3]) [µM] | Compound | other results
25 | > 10 | CCCN1Cc2cc(Oc3cccc(NS(=O)(=O)c4ccc(OC(F)(F)F)cc4)c3)ccc2N=C1N [Compound 283] | 
26 | 4 | CCN(C(=O)CCN1Cc2cc(C(=O)c3ccccc3)ccc2N=C1N)C1CCCCC1 [Compound 3] | 
27 | 0.78 | CN(C(=O)CCCCN1Cc2cc(Oc3cccc(NCC4CCCCC4)c3)ccc2N=C1N)C1CCCCC1 [Compound 96] | 
28 | > 10 | CCCN1Cc2cc(Oc3cccc(NS(=O)(=O)c4ccc(-c5ccccn5)s4)c3)ccc2N=C1N [Compound 251] | 
29 | 0.39 | CCCN1Cc2cc(Oc3cccc(NS(=O)(=O)c4cccc(OC)c4)c3)ccc2N=C1N [Compound 271] | 
30 | 0.53 | CCOC(=O)N1CCC(N2Cc3cc(Oc4cccc(NS(=O)(=O)c5c(C)cc(C)cc5C)c4)ccc3N=C2N)CC1 [Compound 362] | 
31 | 0.17 | CCCN1Cc2cc(Oc3cccc(NS(=O)(=O)c4csc5ccccc45)c3)ccc2N=C1N [Compound 245] | 
32 | 5.2 | CCCN1Cc2cc(Oc3cccc(NS(=O)(=O)c4ccc(OC)c(OC)c4)c3)ccc2N=C1N [Compound 249] | 
33 | 2.7 | CN(C(=O)CCN1Cc2cc(C(=O)c3ccccc3)ccc2N=C1N)C1CCCc2ccccc21 (stereo not shown) [Compound 45] | 
34 | 5.6 | CCCN1Cc2cc(Oc3cccc(NC(=O)c4ccccc4)c3)ccc2N=C1N [Compound 60] | 
35 | 2.1 | CCCN1Cc2cc(Oc3cccc(NS(=O)(=O)c4ccc5ccccc5c4)c3)ccc2N=C1N [Compound 244] | 
36 | 1.6 | CCCN1Cc2cc(Oc3cccc(NS(=O)(=O)CCc4cccc5ccccc45)c3)ccc2N=C1N [Compound 281] | 
37 | 0.17 | CCOC(=O)N1CCC(N2Cc3cc(Oc4cccc(NS(=O)(=O)c5ccccc5)c4)ccc3N=C2N)CC1 [Compound 376] | 
38 | 3.4 | CCCN1Cc2cc(Oc3cccc(NCc4c(OC)cccc4OC)c3)ccc2N=C1N [Compound 501] | 
39 | 1.3 | NC1=Nc2ccc(C(=O)c3ccccc3)cc2CN1CCC(=O)N(C1CCCCC1)C1CCCCC1 [Compound 39] | 
40 | > 10 | CCCN1Cc2cc(Oc3cccc(NS(=O)(=O)c4c(C)noc4C)c3)ccc2N=C1N [Compound 242] | 
41 | > 10 | CCCN1Cc2cc(Oc3cccc(NS(=O)(=O)c4ccc(-c5csc(C)n5)s4)c3)ccc2N=C1N [Compound 254] | 
42 | 12 | CC(C)N(C)C(=O)CCN1Cc2cc(C(=O)c3ccccc3)ccc2N=C1N [Compound 22] | 
43 | 0.13 | CC(C)(C)OC(=O)N1CCC(CN2Cc3cc(Oc4cccc(NS(=O)(=O)c5ccccc5)c4)ccc3N=C2N)CC1 [Compound 384] | 
44 | > 10 | CCCN1Cc2cc(Oc3cccc(NS(=O)(=O)c4ccccc4S(C)(=O)=O)c3)ccc2N=C1N [Compound 250] | 
45 | 2.6 | COc1cc(C)ccc1S(=O)(=O)Nc1cccc(Oc2ccc3c(c2)CN(CCCCCO)C(N)=N3)c1 [Compound 355] | 
46 | 0.66 | NC1=Nc2ccc(Oc3cccc(NC(=O)OCc4ccccc4)c3)cc2CN1CCCCC(=O)N(C1CCCCC1)C1CCCCC1 [Compound 75] | 
47 | 2.3 | CN(C(=O)CCCCN1Cc2cc(C(=O)c3ccccc3)ccc2N=C1N)C1CCCc2ccccc21 (stereo not shown) [Compound 54] | 
48 | 0.35 | CCCCS(=O)(=O)Nc1cccc(Oc2ccc3c(c2)CN(CCC)C(N)=N3)c1 [Compound 239] | 
